Measured values from paper PMC3969223, “Characterization of WZ4003 and HTH-01-015 as selective inhibitors of the LKB1-tumour-suppressor-activated NUAK kinases” (Biochemical Journal, 2013).

Tests used:
Experiment in all cases: Kinase profiling
Format in all cases: biochemical
[1] = target: ASK1 (Homo sapiens, UniProt Q99683); settings: 0.1 or 1 μM inhibitor; mean of triplicate
Description: (§1) Kinase inhibitor specificity profiling assays were carried out at The International Centre for Protein Kinase Profiling (http://www.kinase-screen.mrc.ac.uk/) against a panel of 140 protein kinases as described previously. Results are presented as a percentage of kinase activity in DMSO control reactions. Protein kinases were assayed in vitro with 0.1 or 1 μM of the inhibitors and the results are presented as an average of triplicate reactions±S.D. or in the form of comparative histograms.

[2] = target: BTK (Homo sapiens, UniProt Q06187); settings: 0.1 or 1 μM inhibitor; mean of triplicate
Description: as §1

[3] = target: CHK2 (Homo sapiens, UniProt O96017); settings: 0.1 or 1 μM inhibitor; mean of triplicate
Description: as §1

[4] = target: DYRK1A (Homo sapiens, UniProt Q13627); settings: 0.1 or 1 μM inhibitor; mean of triplicate
Description: as §1

[5] = target: EPH-B1 (Homo sapiens, UniProt P54762); settings: 0.1 or 1 μM inhibitor; mean of triplicate
Description: as §1

[6] = target: EPH-B3 (Homo sapiens, UniProt P54753); settings: 0.1 or 1 μM inhibitor; mean of triplicate
Description: as §1

[7] = target: HIPK1 (Homo sapiens, UniProt Q86Z02); settings: 0.1 or 1 μM inhibitor; mean of triplicate
Description: as §1

[8] = target: HIPK3 (Homo sapiens, UniProt Q9H422); settings: 0.1 or 1 μM inhibitor; mean of triplicate
Description: as §1

[9] = target: LKB1 (Homo sapiens, UniProt Q15831); settings: 0.1 or 1 μM inhibitor; mean of triplicate
Description: as §1

[10] = target: MAP4K3 (Homo sapiens, UniProt Q8IVH8); settings: 0.1 or 1 μM inhibitor; mean of triplicate
Description: as §1

[11] = target: MAP4K5 (Homo sapiens, UniProt Q9Y4K4); settings: 0.1 or 1 μM inhibitor; mean of triplicate
Description: as §1

[12] = target: MARK3 (Homo sapiens, UniProt P27448)
Description: as §1

[13] = target: MEKK1 (Homo sapiens, UniProt Q13233); settings: 0.1 or 1 μM inhibitor; mean of triplicate
Description: as §1

[14] = target: MKK2 (Homo sapiens, UniProt P36507); settings: 0.1 or 1 μM inhibitor; mean of triplicate
Description: as §1

[15] = target: MNK1 (Homo sapiens, UniProt Q9BUB5); settings: 0.1 or 1 μM inhibitor; mean of triplicate
Description: as §1

[16] = target: MST4 (Homo sapiens, UniProt Q9P289); settings: 0.1 or 1 μM inhibitor; mean of triplicate
Description: as §1

[17] = target: T1, NUAK1 (Homo sapiens, UniProt O60285); settings: 0.1 or 1 μM inhibitor; mean of triplicate
T1 construct: made in house; host or cells: HEK-293 cells, transient transfection of pEBG2T construct
T1 sequence (O60285 1-661): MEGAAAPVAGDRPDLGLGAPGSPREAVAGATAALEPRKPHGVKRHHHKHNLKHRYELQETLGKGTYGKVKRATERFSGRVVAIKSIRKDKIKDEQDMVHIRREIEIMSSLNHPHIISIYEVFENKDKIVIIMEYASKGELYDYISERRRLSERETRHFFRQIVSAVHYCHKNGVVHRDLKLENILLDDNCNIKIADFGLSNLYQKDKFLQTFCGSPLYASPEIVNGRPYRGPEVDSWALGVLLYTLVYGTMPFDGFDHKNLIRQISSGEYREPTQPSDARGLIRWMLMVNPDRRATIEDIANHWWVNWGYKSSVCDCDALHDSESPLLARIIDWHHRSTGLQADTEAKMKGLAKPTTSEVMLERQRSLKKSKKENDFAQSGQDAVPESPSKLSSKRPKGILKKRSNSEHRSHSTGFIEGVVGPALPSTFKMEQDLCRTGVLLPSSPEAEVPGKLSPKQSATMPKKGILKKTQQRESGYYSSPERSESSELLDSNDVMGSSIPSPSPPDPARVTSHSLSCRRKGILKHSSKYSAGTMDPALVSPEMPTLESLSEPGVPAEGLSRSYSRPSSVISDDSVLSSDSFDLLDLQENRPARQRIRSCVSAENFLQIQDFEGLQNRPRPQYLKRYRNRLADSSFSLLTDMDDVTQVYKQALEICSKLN
Description: as §1

[18] = target: PAK2 (Homo sapiens, UniProt Q13177); settings: 0.1 or 1 μM inhibitor; mean of triplicate
Description: as §1

[19] = target: PAK6 (Homo sapiens, UniProt Q9NQU5); settings: 0.1 or 1 μM inhibitor; mean of triplicate
Description: as §1

[20] = target: PHK (Homo sapiens, UniProt Q16816); settings: 0.1 or 1 μM inhibitor; mean of triplicate
Description: as §1

[21] = target: PIM2 (Homo sapiens, UniProt Q9P1W9); settings: 0.1 or 1 μM inhibitor; mean of triplicate
Description: as §1

[22] = target: PKCζ (Homo sapiens, UniProt Q05513); settings: 0.1 or 1 μM inhibitor; mean of triplicate
Description: as §1

[23] = target: PRAK (Homo sapiens, UniProt Q8IW41); settings: 0.1 or 1 μM inhibitor; mean of triplicate
Description: as §1

[24] = target: ROCK 2 (Homo sapiens, UniProt O75116); settings: 0.1 or 1 μM inhibitor; mean of triplicate
Description: as §1

[25] = target: RSK2 (Homo sapiens, UniProt P51812); settings: 0.1 or 1 μM inhibitor; mean of triplicate
Description: as §1

[26] = target: SIK3 (Homo sapiens, UniProt Q9Y2K2); settings: 0.1 or 1 μM inhibitor; mean of triplicate
Description: as §1

[27] = target: TAO1 (Homo sapiens, UniProt Q7L7X3); settings: 0.1 or 1 μM inhibitor; mean of triplicate
Description: as §1

[28] = target: TGFBR1 (Homo sapiens, UniProt P36897); settings: 0.1 or 1 μM inhibitor; mean of triplicate
Description: as §1

[29] = target: TIE2 (Homo sapiens, UniProt Q02763); settings: 0.1 or 1 μM inhibitor; mean of triplicate
Description: as §1

[30] = target: TTBK1 (Homo sapiens, UniProt Q5TCY1); settings: 0.1 or 1 μM inhibitor; mean of triplicate
Description: as §1

[31] = target: ULK1 (Homo sapiens, UniProt O75385); settings: 0.1 or 1 μM inhibitor; mean of triplicate
Description: as §1

[32] = target: VEG-FR (Homo sapiens, UniProt P17948); settings: 0.1 or 1 μM inhibitor; mean of triplicate
Description: as §1

[33] = target: p38β MAPK (Homo sapiens, UniProt Q15759); settings: 0.1 or 1 μM inhibitor; mean of triplicate
Description: as §1

Chain of CHK2 (O96017 whole entry): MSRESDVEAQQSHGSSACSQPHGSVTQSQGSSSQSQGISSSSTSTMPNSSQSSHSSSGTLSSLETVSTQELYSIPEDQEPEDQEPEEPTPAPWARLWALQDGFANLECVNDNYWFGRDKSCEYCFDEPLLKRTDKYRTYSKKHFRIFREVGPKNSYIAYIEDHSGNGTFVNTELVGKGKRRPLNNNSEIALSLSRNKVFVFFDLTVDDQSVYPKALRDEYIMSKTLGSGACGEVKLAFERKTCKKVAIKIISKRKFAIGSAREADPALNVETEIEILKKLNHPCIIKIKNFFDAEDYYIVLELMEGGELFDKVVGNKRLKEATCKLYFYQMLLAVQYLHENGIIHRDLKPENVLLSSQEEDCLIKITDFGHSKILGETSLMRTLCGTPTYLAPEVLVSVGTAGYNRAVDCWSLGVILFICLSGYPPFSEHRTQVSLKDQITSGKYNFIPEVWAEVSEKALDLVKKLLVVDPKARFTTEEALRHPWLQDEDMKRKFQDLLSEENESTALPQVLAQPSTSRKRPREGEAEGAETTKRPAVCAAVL
Chain of LKB1 (Q15831 whole entry): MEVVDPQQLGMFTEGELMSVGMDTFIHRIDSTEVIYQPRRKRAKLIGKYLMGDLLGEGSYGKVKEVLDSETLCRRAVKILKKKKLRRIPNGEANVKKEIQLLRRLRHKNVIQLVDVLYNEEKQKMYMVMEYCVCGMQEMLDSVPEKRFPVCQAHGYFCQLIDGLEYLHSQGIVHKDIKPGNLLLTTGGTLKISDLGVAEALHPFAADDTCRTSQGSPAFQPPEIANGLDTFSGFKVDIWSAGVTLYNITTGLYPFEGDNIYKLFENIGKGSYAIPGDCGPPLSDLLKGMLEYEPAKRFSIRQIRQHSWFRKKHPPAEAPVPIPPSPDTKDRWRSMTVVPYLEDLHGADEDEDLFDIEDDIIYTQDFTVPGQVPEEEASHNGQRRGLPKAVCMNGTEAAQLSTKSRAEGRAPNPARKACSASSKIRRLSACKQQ
Chain of LKB1 (Q7RTN6 whole entry partner): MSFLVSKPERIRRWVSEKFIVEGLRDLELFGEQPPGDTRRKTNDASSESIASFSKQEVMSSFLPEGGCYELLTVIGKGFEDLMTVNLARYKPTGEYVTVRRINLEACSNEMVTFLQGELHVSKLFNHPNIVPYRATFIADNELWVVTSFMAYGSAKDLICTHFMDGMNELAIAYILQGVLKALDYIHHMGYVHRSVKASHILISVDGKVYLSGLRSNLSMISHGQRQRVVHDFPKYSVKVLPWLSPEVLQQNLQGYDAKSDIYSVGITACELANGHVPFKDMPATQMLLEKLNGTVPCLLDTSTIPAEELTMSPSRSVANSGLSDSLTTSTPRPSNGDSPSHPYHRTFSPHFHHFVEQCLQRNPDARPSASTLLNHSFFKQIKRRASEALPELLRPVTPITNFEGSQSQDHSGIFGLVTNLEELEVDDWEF
Chain of LKB1 (Q9Y376 whole entry partner): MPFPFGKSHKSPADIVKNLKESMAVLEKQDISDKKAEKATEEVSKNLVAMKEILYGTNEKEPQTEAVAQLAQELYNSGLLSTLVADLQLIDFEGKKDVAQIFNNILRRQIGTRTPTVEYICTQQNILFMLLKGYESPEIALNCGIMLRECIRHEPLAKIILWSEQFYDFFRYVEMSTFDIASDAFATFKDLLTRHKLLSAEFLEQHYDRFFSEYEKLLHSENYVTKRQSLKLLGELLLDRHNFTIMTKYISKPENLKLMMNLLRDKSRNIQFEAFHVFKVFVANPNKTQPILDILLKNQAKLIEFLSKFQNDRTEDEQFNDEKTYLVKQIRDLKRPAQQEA
Chain of TIE2 (Q02763 23-1124): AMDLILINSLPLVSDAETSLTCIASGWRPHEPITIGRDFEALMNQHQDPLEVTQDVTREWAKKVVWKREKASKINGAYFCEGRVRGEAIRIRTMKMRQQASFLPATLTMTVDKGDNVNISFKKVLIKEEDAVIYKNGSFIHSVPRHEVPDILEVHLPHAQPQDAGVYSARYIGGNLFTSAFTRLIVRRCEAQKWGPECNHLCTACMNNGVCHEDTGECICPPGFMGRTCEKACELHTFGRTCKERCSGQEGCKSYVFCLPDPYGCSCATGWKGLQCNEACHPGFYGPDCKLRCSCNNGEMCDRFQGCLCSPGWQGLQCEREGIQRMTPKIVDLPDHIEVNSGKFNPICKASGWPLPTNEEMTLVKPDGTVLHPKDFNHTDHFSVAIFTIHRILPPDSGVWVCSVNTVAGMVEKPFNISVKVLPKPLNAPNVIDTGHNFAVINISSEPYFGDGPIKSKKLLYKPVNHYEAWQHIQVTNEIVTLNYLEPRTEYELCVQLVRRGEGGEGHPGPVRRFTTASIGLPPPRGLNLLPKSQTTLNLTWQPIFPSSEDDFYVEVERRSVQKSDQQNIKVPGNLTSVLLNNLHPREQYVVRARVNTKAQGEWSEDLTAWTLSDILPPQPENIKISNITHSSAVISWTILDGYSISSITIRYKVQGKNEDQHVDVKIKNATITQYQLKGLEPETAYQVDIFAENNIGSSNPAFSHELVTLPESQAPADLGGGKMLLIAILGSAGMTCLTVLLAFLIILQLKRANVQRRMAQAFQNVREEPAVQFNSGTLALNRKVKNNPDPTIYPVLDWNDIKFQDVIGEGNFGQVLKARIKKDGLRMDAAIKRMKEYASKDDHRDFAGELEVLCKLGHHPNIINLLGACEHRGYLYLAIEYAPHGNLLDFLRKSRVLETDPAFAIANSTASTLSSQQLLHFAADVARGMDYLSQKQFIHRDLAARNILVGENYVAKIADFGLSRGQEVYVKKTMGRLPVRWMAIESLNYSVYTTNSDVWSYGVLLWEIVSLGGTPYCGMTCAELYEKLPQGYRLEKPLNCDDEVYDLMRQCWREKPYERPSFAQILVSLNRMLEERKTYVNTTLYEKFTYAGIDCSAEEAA
Chain of MEKK1 (Q13233 whole entry): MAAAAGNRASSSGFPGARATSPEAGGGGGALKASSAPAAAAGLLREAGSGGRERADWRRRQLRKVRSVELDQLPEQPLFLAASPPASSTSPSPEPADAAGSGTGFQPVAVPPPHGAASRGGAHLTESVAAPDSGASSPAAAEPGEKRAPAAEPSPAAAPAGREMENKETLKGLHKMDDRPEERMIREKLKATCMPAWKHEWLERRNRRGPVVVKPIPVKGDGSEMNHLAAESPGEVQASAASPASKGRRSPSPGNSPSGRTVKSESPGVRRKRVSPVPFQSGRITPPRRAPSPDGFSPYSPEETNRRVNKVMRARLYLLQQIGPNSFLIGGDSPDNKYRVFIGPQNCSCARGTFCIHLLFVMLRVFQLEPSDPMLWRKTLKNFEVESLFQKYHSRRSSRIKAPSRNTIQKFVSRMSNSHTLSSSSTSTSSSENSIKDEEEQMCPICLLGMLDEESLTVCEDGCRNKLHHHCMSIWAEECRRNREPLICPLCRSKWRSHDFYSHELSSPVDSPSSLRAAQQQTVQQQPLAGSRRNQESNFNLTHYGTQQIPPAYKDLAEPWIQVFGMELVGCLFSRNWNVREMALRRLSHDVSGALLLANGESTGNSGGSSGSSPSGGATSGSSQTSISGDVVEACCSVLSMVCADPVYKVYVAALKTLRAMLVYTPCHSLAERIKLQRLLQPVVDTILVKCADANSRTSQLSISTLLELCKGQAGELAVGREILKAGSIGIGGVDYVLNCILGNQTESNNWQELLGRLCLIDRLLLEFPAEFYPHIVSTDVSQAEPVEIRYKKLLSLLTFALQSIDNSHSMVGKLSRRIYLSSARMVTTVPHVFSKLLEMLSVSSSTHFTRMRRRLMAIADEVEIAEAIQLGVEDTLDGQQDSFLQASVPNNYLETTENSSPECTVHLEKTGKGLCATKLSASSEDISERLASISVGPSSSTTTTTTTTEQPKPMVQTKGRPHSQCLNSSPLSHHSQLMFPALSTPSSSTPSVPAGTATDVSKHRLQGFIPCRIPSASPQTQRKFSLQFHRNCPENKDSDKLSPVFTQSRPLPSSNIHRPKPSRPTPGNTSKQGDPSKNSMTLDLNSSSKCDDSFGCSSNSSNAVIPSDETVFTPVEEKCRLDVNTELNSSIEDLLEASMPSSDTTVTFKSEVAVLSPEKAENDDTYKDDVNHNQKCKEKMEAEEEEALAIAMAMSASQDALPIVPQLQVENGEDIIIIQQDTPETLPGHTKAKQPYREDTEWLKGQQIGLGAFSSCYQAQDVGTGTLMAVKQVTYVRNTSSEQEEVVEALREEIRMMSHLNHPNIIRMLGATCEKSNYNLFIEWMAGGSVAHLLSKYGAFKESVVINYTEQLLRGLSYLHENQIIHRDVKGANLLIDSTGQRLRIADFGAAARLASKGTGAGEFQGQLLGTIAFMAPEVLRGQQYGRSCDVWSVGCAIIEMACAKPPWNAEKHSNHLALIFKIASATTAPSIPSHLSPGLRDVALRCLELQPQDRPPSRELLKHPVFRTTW
Chain of PIM2 (Q9P1W9 whole entry): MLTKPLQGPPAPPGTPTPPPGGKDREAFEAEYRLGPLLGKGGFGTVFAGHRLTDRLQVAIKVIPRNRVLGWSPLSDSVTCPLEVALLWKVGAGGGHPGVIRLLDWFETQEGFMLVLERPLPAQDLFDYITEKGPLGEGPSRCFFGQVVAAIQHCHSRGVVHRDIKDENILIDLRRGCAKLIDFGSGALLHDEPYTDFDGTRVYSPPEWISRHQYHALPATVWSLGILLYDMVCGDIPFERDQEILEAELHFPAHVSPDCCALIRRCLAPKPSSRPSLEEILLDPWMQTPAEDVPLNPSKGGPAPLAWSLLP
Chain of p38β MAPK (Q15759 whole entry): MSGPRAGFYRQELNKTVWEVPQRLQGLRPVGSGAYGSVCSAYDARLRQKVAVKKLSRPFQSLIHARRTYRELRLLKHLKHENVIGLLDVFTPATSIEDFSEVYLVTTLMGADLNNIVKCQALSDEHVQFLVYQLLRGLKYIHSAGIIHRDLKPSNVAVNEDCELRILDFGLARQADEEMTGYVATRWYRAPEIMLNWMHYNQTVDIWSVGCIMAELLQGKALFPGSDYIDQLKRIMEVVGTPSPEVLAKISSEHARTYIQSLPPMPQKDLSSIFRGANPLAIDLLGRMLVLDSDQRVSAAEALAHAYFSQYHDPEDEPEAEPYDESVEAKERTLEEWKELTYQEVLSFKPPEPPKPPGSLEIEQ

| Compound | ASK1 activity, percentage of DMSO control [1] [percentage] | BTK activity, percentage of DMSO control [2] [percentage] | CHK2 activity, percentage of DMSO control [3] [percentage] | DYRK1A activity, percentage of DMSO control [4] [percentage] | EPH-B1 activity, percentage of DMSO control [5] [percentage] | EPH-B3 activity, percentage of DMSO control [6] [percentage] | HIPK1 activity, percentage of DMSO control [7] [percentage] | HIPK3 activity, percentage of DMSO control [8] [percentage] | LKB1 activity, percentage of DMSO control [9] [percentage] | MAP4K3 activity, percentage of DMSO control [10] [percentage] | MAP4K5 activity, percentage of DMSO control [11] [percentage] | MEKK1 activity, percentage of DMSO control [13] [percentage] | MKK2 activity, percentage of DMSO control [14] [percentage] | MNK1 activity, percentage of DMSO control [15] [percentage] | MST4 activity, percentage of DMSO control [16] [percentage] | NUAK1 activity, percentage of DMSO control [17] [percentage] | PAK2 activity, percentage of DMSO control [18] [percentage] | PAK6 activity, percentage of DMSO control [19] [percentage] | PHK activity, percentage of DMSO control [20] [percentage] | PIM2 activity, percentage of DMSO control [21] [percentage] | other results |
| --- | --- | --- | --- | --- | --- | --- | --- | --- | --- | --- | --- | --- | --- | --- | --- | --- | --- | --- | --- | --- | --- |
| Cc1nc(Nc2cnn(C3CCNCC3)c2)nc2c1N(C)C(=O)c1cc3ccccc3cc1N2C [HTH-01-015] | 105 | 109 | 105 | 89 | 97 | 120 | 107 | 96 | 98 | 127 | 106 | 110 | 111 | 102 | 119 | 11 | 125 | 95 | 104 | 106 | MARK3 activity, percentage of DMSO control ([12]; 0.1 or 1 μM inhibitor, mean of triplicate): 102 percentage; PKCζ activity, percentage of DMSO control [22]: 98 percentage; PRAK activity, percentage of DMSO control [23]: 105 percentage; ROCK 2 activity, percentage of DMSO control [24]: 110 percentage; RSK2 activity, percentage of DMSO control [25]: 106 percentage; SIK3 activity, percentage of DMSO control [26]: 109 percentage; TAO1 activity, percentage of DMSO control [27]: 123 percentage; TGFBR1 activity, percentage of DMSO control [28]: 102 percentage; TIE2 activity, percentage of DMSO control [29]: 84 percentage; TTBK1 activity, percentage of DMSO control [30]: 124 percentage; ULK1 activity, percentage of DMSO control [31]: 132 percentage; VEG-FR activity, percentage of DMSO control [32]: 97 percentage; p38β MAPK activity, percentage of DMSO control [33]: 112 percentage |
| CCC(=O)Nc1cccc(Oc2nc(Nc3ccc(N4CCN(C)CC4)cc3OC)ncc2Cl)c1 [WZ4003] | 107 | 114 | 40 | 102 | 98 | 113 | 103 | 91 | 87 | 111 | 108 | 91 | 98 | 104 | 101 | 6 | 92 | 104 | 54 | 101 | PKCζ activity, percentage of DMSO control [22]: 86 percentage; PRAK activity, percentage of DMSO control [23]: 94 percentage; ROCK 2 activity, percentage of DMSO control [24]: 80 percentage; RSK2 activity, percentage of DMSO control [25]: 76 percentage; SIK3 activity, percentage of DMSO control [26]: 102 percentage; TAO1 activity, percentage of DMSO control [27]: 101 percentage; TGFBR1 activity, percentage of DMSO control [28]: 102 percentage; TIE2 activity, percentage of DMSO control [29]: 94 percentage; TTBK1 activity, percentage of DMSO control [30]: 78 percentage; ULK1 activity, percentage of DMSO control [31]: 52 percentage; VEG-FR activity, percentage of DMSO control [32]: 74 percentage; p38β MAPK activity, percentage of DMSO control [33]: 104 percentage |
| CN1C(=O)c2ccccc2N(C)c2nc(Nc3cnn(C4CCNCC4)c3)ncc21 [XMD-17-51] | – | – | – | – | – | – | – | – | – | – | – | – | – | – | – | – | – | – | – | – | Inhibition of MARK3 in profiling (in words) ([12]; 1 μM): inhibited |
